This passage reports Ki and Km results from publication PMC4643977, “Negative Feedbacks by Isoprenoids on a Mevalonate Kinase Expressed in the Corpora Allata of Mosquitoes” (PLoS ONE, 2015).

Data set [1] addresses T1, Aedes aegypti mevalonate kinase (AaMVK) (Aedes aegypti, UniProt Q176C1).
T1 construct: gene 5567998; recombinant His-tagged full-length AaMVK (397 aa) expressed in E. coli
T1 sequence (Q176C1 1-397): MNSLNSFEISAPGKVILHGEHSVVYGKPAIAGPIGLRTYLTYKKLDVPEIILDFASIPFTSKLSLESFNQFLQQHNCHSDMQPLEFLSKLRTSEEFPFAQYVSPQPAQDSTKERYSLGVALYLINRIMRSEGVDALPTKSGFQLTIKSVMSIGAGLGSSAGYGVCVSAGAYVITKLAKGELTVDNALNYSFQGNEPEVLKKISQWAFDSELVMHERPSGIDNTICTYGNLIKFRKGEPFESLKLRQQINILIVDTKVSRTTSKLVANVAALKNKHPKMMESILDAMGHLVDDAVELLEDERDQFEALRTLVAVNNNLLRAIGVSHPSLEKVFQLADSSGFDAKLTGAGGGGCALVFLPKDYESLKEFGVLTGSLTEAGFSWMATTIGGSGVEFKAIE
The experiment in a line: PK/LDH-coupled spectrophotometric kinase assay, Ki from varied ATP and inhibitor. The class given is biochemical.

Substrate in the data set “purified protein”: C[C@@](O)(CCO)CC(=O)O
The experiment in a line: purified protein. The settings on record: Mg2+.

Substrate in data set [2]: Nc1ncnc2c1ncn2[C@@H]1O[C@H](COP(=O)(O)OP(=O)(O)OP(=O)(O)O)[C@@H](O)[C@H]1O
Description: Michaelis-Menten kinetics, PK/LDH-coupled assay (Km). The class given is biochemical, Aedes aegypti. The settings on record: Mg2+.

As for `CC(C)=CCC/C(C)=C/CC/C(C)=C/CO[P@@](=O)(O)OP(=O)(O)O` (stereo in doubt) [FPP, farnesyl diphosphate], in data set [1], the Ki came to 440 ± 200 nM.

In data set [1], `CC(C)=CCC/C(C)=C/CC/C(C)=C/CC/C(C)=C/COP(=O)(O)OP(=O)(O)O` [GGPP, geranyl-geranyl pyrophosphate] had a Ki of 930 ± 190 nM. Turning to `CC(C)=CCC/C(C)=C/COP(=O)(O)OP(=O)(O)O` [GPP, geranyl diphosphate], in data set [1], the Ki is 550 ± 280 nM.

B1: Aedes aegypti mevalonate kinase (AaMVK) (Aedes aegypti) (protein)
chain: T1 sequence (Q176C1 1-397)
notes: recombinant His-tagged full-length AaMVK (397 aa) expressed in E. coli
B1: the Km was 90 ± 18 µM in “purified protein” and 140 ± 28 µM in data set [2].

Usually Ki stands for the equilibrium dissociation constant of an inhibitor or competing ligand from its target. For orientation: Km means the concentration of substrate that gives half-maximal velocity.
